This note sets out measurements from patent publication US20210008095A1, “METHODS FOR TREATING MUSCULAR DYSTROPHY” (Sarepta Therapeutics, Inc., priority 2015, published 2021).

Several values for one entry are separate records, joined by “and”; a condition that tells them apart may be missing. Equal entries are not always repeated. Entries after “also recorded” stand apart in the source; their conditions may differ.

Common to all, as to assay type: in vivo, human
One series concerns dystrophin. As to the kind of experiment: Dystrophin protein expression by western blot analysis in muscle biopsy. As to conditions: 180 weeks. As to the method:
In some embodiments, the percent dystrophin-positive fibers are calculated by dividing the number of positive fibers by the total fibers counted. Normal muscle samples have 100% dystrophin-positive fibers. Therefore, the percent dystrophin-positive fibers can be expressed as a percentage of normal. To control for the presence of trace levels of dystrophin in the pretreatment muscle as well as revertant fibers a baseline can be set using sections of pre-treatment muscles from each patient when counting dystrophin-positive fibers in post-treatment muscles. This may be used as a threshold for counting dystrophin-positive fibers in sections of post-treatment muscle in that patient. In other embodiments, antibody-stained tissue sections can also be used for dystrophin quantification using Bioquant image analysis software (Bioquant Image Analysis Corporation, Nashville, Tenn.). The total dystrophin fluorescence signal intensity can be reported as a percentage of normal. […] Dystrophin production can also be measured by reverse-transcription polymerase chain reaction (RT-PCR). […] The percentage of dystrophin-positive fibers can also be analyzed by determining the expression of the components of the sarcoglycan complex (β,γ) and/or neuronal NOS. […]

Series [1] is described as follows: Safety and tolerability monitoring, Study 201/202. As to the method: Safety was assessed by evaluation of adverse events, vital signs, physical examinations, electrocardiograms, echocardiograms, and clinical laboratory testing. In addition, kidney function was monitored via regular assessments of serum cystatin C and urine cystatin C and KIM-1.
In series [2] the test system is patients with Duchenne muscular dystrophy (DMD) amenable to exon 51 skipping. As to the kind of experiment: Pulmonary function testing (MIP, MEP, FVC). As to conditions: baseline through Week 192. The source says:
In some embodiments, treatment with eteplirsen slows or reduces the progressive respiratory muscle dysfunction and/or failure in patients with DMD that would be expected without treatment. In some embodiments, treatment with eteplirsen stabilizes respiratory muscle function in patients with DMD. In one embodiment, treatment with eteplirsen may reduce or eliminate the need for ventilation assistance that would be expected without treatment. In one embodiment, measurements of respiratory function for tracking the course of the disease, as well as the evaluation of potential therapeutic interventions include Maximum inspiratory pressure (MIP), maximum expiratory pressure (MEP) and forced vital capacity (FVC). MIP and MEP measure the level of pressure a person can generate during inhalation and exhalation, respectively, and are sensitive measures of respiratory muscle strength. […]
(§1) The 6MWT was administered using the protocol established for patients with DMD by McDonald, et al. (Muscle Nerve, 2010; 42:966-74; Muscle Nerve, 2010; 41:500-10 herein incorporated by reference), except there was no use of the StepWatch actimetry device. Exploratory functional outcomes included the North Star Ambulatory Assessment, quantitative muscle testing, the 9-Hole Peg Test, pulmonary function testing (PFT), timed function tests, and assessment of quality of life.

For series [3] the test system is unchanged. As to the kind of experiment: Ability to rise independently from supine / rise time.
Excerpt: In some embodiments, muscle function in a DMD patient may be assessed for ability to rise from a supine position without external assistance (independently). In some embodiments, the assessment can include whether or not the subject has the ability to rise from a supine position. In some embodiments, the assessment includes the time (e.g., in seconds) it takes for the patient to rise from a supine position without external assistance. Such measurements are well known to the skilled artisan and are described in, e.g., Bushby and Connor (2011) Clin Investig (Lond.) 1(9):1217-1235 and Henricson et al. (2013) Muscle Nerve 48(1):55-67, the disclosures of each of which are incorporated herein by reference in their entirety. In some embodiments, a patient treated by any of the methods described herein has lost the ability to rise independently from a supine position prior to beginning treatment with eteplirsen. In some embodiments, the patient lost the ability to rise independently from a supine position at least one (e.g., at least two, three, four, five, six, seven, eight, nine, 10, 11, 12, 16, 18, 20, 24, or more) month(s) prior to beginning treatment with eteplirsen. In some embodiments, a patient treated by any of the methods described herein loses the ability to rise independently from a supine position while being treated with eteplirsen. In some embodiments, the patient loses the ability to rise independently from a supine position at least one (e.g., at least two, three, four, five, six, seven, eight, nine, 10, 11, 12, 16, 18, 20, 24, 30, or 36 or more) month(s) after commencing treatment with eteplirsen.
as §1

Series [4] shares this test system. As to the kind of experiment: North Star Ambulatory Assessment (NSAA). Details: key to Year 3 NSAA Score: sum of activity scores, each 2 = normal to 0 = unable independently.
Excerpt: Due to decreases in muscle function in patients with DMD, ambulation is often lost during disease progression. Ambulation can be measured through various methods, including the North Star Ambulatory Assessment (NSAA). The NSAA was developed by the Physiotherapy Assessment and Evaluation Group of the North Start Clinical Network to assess ambulant boys with DMD, and provides a list of activities that are scored from 2-0, with 2 being normal and 0 being “unable to achieve independently” (2006-2011 MDC/North Star Clinical Network). These activities range from standing for a minimum of 3 seconds to climbing up and down a box to running. In certain embodiments, treatment with eteplirsen may maintain, stabilize, increase, or improve ambulation, for example, as determined by the NSAA.
as §1

Where [5] appears, read: individual ambulatory subjects (n=10), year of loss of ability in brackets.

Turning to “RNA, [P-deoxy-P-(dimethylamino)](2′,3′-dideoxy-2′,3′-imino-2′,3′-seco)(2′a→5′)(C-m5U-C-C-A-A-C-A-m5U-C-A-A-G-G-A-A-G-A-m5U-G-G-C-A-m5U-m5U-m5U-C-m5U-A-G), 5′-[P-[4-[[2-[2-(2-hydroxyethoxy)ethoxy]ethoxy]carbonyl]-1-piperazinyl]-N,N-dimethylphosphonamidate] (antisense CTCCAACATCAAGGAAGATGGCATTTCTAG; all phosphorodiamidate morpholino (PMO); 5' piperazinyl triethylene glycol carbamate tail on phosphonamidate, further chemistry not fully specified) [eteplirsen]”, the “patients with dystrophin protein expression as measured by western blot analysis” value with dystrophin is 9 of 11. The “drug-related serious adverse events” value in series [1] (over 2300 doses, 192 week treatment period) is listed as “no drug-related serious adverse events”. Further, in series [1] (through 216 weeks of treatment), the “chemistries: hematologic, renal, coagulation or liver functions” value was “no clinically significant changes in hematologic, renal, coagulation or liver functions”; the “electrocardiograms, echocardiograms and PFTs” value was “remained stable”; the “physical examination and vital signs” value is recorded as “no clinically significant changes”; the “tolerability: adverse events, discontinuations, missed doses” value is on record as “well tolerated with no treatment-related adverse events, serious adverse events, discontinuations or missed doses”. Besides, the “pulmonary function (MIP, MEP, FVC)” value in series [2] is “continued stabilization of pulmonary function; also recorded: either maintained or had only a slight decline in all of MIP, MEP, and FVC”. For the same substance, in series [3] (from years 1 to 3), the “number of patients who lost the ability to rise without external support” value is “four”. In series [3] (setting [5]), the “Year 3 Rise Time” value is 24.1 s and 17.9 s and 13.1 s and 8.9 s and 8.2 s and 6.2 s; the “Year 3 Rise Time(s)” value is “Unable to rise”. Further, in series [4] (at 2 and 3 years following treatment, vs external control), the “rate of decline in NSAA score” value was “slower rate of decline in NSAA score”. Besides, the “difference in NSAA score compared to the external control group cohort” value in series [4] (at 3 years) turned out to be 2.6 points. For the same substance, in series [4] (individual ambulatory subjects (n=10)), the “Year 3 NSAA Score” value is 13 (3×) and 14 and 24 and 25 (2×) and 7 and 8 and 11.
